Earlier results in patent US20130252843A1, “METHOD OF MAKING AND USING FLUORESCENT-TAGGED NANOPARTICLES AND MICROARRAYS” (THE STATE OF OREGON ACTING BY AND THROUGH THE STATE BOARD …, priority 2010, published 2013).
Where two headings read alike, the source gives them in different places.

Tests used:
[1] = molecular target: Con A, Concanavalin A (Canavalia ensiformis, UniProt P02866); conditions: reported solution association constants, cited from earlier work
[2] = molecular target: CVN (Cyanovirin-N mutants); conditions: cited from earlier work
[3] = molecular target: CVN-M, Cyanovirin-N Mut^DB (CV-N^MutDB) mutant (Nostoc ellipsosporum, UniProt P81180); conditions: reported association constants, cited from earlier work
[4] = molecular target: CVN-Q, Cyanovirin-N Q^50C (Q50C) mutant (Nostoc ellipsosporum, UniProt P81180, Q50C); conditions: cited from earlier work
[5] = molecular target: DBA, Dolichos Biflorus Agglutinin; conditions: cited from earlier work
[6] = molecular target: RCA, Ricinus Communis Agglutinin I; conditions: cited from earlier work
[7] = molecular target: BS-I, Bandeiraea simplicifolia lectin; conditions: cited from earlier work
[8] = molecular target: T1, PNA, Peanut Agglutinin (Arachis hypogaea, UniProt P02872); conditions: cited from earlier work
T1 construct: purchased Sigma-Aldrich

SMILES	Ka [1] [M⁻¹]	Ka ([1]; listed as 2α, 2α-Man3) [M⁻¹]	Ka ([1]; listed as Man3)	Ka [2]	Ka [3] [M⁻¹]	Ka ([3]; listed as 2α, 2α-Man3) [M⁻¹]	Ka ([4]; Domain A)	Ka ([4]; Domain B)	Ka [5]	Ka [6] [M⁻¹]	Ka [7] [M⁻¹]	Ka [8] [M⁻¹]
OC[C@H]1O[C@H](O[C@@H]2[C@@H](O[C@@H]3C(O)O[C@H](CO)[C@@H](O)[C@@H]3O)O[C@H](CO)[C@@H](O)[C@@H]2O)[C@@H](O)[C@@H](O)[C@@H]1O (stereo partly drawn) [2α,2α-Man3, α-1,2-α-1,2-mannotriose]	379000	379000	10^5-10^6 M^−1	10^5-10^6 M^−1	294000	294000	2.94 × 10^5 (Domain A); M^−1	2.33 × 10^4 (Domain B) M^−1				
CC(=O)N[C@H]1C(O)O[C@H](CO)[C@H](O)[C@@H]1O (stereo partly drawn) [GalNAc, N-acetylgalactosamine]									~10^3 M^−1	48400	187000	2430
